Data taken from patent US8846873B2, “Antibodies directed to GPNMB and uses thereof” (Celldex Therapeutics, Inc., priority 2004, dated 2014).
“Also recorded” adds a separate entry of the source.

How the values were obtained:
[1] = molecular target: T1, purified recombinant GPNMB (Homo sapiens, UniProt Q14956); experiment: ELISA of CR011 engineered antibodies on recombinant GPNMB; type: binding; conditions: anti-FLAG-HRP detection
T1 construct: made in house; host or cells: HEK 293
T1 sequence (Q14956 23-492): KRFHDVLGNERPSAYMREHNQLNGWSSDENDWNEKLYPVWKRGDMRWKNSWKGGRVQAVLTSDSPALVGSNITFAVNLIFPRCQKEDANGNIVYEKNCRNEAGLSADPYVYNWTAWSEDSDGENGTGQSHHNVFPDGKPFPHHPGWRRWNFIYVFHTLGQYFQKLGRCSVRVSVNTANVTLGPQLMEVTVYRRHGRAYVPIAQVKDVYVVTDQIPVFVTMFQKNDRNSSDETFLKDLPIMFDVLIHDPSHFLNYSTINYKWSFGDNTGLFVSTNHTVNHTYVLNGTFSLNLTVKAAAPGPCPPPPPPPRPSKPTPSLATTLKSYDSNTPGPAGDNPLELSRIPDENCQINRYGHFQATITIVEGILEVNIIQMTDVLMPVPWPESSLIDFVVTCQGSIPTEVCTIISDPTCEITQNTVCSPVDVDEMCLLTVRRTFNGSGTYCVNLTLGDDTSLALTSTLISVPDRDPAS
Procedure: Plates were then blocked and washed. Various dilutions of the CR011 engineered antibodies were added into the wells. Plates were incubated for 1 h and washed. HRP-conjugated anti-FLAG M2 mAb (Sigma, St. Louis, Mo.) was added into the wells for 1 h, washed and the reaction developed with the TMB substrate reagent as described by the manufacturer (Pharmingen, San Jose, Calif.).
Plates were coated with human GPNMB protein tagged with His and V5. […] Binding of the recombinant mAbs (both monomer and dimer) was detected using anti-FLAG-HRP conjugated mAb M2 (Sigma).

human T cells (CD3) = experiment: Flow cytometry of CR011 engineered antibodies; type: binding; conditions: 5 μg/sample/100 μl
From the text: (§1) (Jackson ImmunoResearch, West Grove, Pa.) Ten thousand events were collected and analyzed on a FACSCalibur instrument (Becton Dickinson, Mountain View, Calif.).
(§2) To verify binding of the bi-scFv to human CD3 molecules, we used purified human T cells. […] Control anti-CD3 mAb bound to T cells, and control anti-GPNMB mAb bound to SK-Mel-5 tumor cells.

SK-Mel-5 cells = experiment: Flow cytometry of CR011 engineered antibodies; type: binding, human; conditions: 5 μg/sample/100 μl
From the text: as §1, §2

SK-Mel-5 tumor cells = experiment: T lymphocyte redirected cytotoxicity (PKH2 / propidium iodine flow cytometry); type: cell-based, human; conditions: purified T cells cultured O/N with tumor cells
Procedure: Tumor cells were labeled with PKH2 green fluorescent linker kit (Sigma) and washed. Purified T cells were cultured O/N with PKH2-labeled tumor cells in the presence or absence of purified bi-scFv. Death of GPNMB positive tumor cells was measured by propidium iodine (PI) incorporation.

## CR011 scFv: CR011 single chain antibody VL-L4-VH Flag; SEQ ID NO: 355
[1]
  binding to recombinant GPNMB protein: bound to the GPNMB target; also recorded: bind to the recombinant GPNMB protein
Human T cells (CD3)
  binding to T cells: did not bind CD3 positive T cells
SK-Mel-5 cells
  binding to SK-Mel-5 cells: present at a low level
SK-Mel-5 tumor cells
  killing of SK-Mel-5 tumor cells by T lymphocytes: did not increase killing
